Test results from patent US4758558A, “N-(substituted)-[7-(2-cyanoacetamido)cephalosporanic]amide derivatives having antibiotic utility” (priority 1982, dated 1988).

Assays:
[1] = test system: a species of Lactobacillus; assay: Effect on intestinal bacteria: number of a sp. of Lactobacillus in feces; assay type: in vivo, ICR mice; details: 500 mg/kg/day
Description: (§1) (b) Effect on the intestinal bacterial colonies: […]
(§2) Effects of the present compound on intestinal bacteria
(§3) Each of the present compounds respectively produced in Examples 1 to 18 was orally administered continuously for 2 days at a daily dose rate of 500 mg/kg body weight to each of five female ICR mice of each group after 6 weeks of their birth.
(§4) Each of the two fecal specimens respectively collected from each mouse before and after one day of the administration was diluted with 100 times by weight of an anaerobic diluent (a phosphoric acid buffer solution) and was ground in a mortar, and 0.1 ml of the thus ground material was smeared on each of the following culture media for the following bacteria, and the thus inoculated culture media were incubated under the following conditions. Thereafter, the number of the following bacteria in each of the thus cultured media was determined.
a species of Lactobacillus
LBS agar 37° C., 5 days, […]

Escherichia coli = assay: Effect on intestinal bacteria: number of Escherichia coli in feces; assay type: in vivo, ICR mice; details: 500 mg/kg/day
Description: (b) Effect on the intestinal bacterial colonies:
[…] Each portion of the two kinds of the feces was cultured at 25° C. or 37° C. in a variety of culture medium for one to five days to see the state of Escherichia coli, Pseudomonas aeruginosa, a Streptococcus species, a Lactobacillus species, Lactobacillus bifidus and a Bacteroides species in the culture medium.
as §2
as §4, with “specimens respectively collected from each mouse before and after one day of the administration was diluted with 100 times” left out

[2] = test system: a species of Streptococcus; assay: Effect on intestinal bacteria: number of a sp. of Streptococcus in feces; assay type: in vivo, ICR mice; details: 500 mg/kg/day
Description: as §1, §2, §3, §4
a species of Streptococcus
TATAC agar 37° C., one day, […]

a species of Bacteroides = assay: Effect on intestinal bacteria: number of a sp. of Bacteroides in feces; assay type: in vivo, ICR mice; details: 500 mg/kg/day
Description: as §1, §2, §3, §4
a species of Bacteroides
NBGT agar 37° C., 5 days, […]

Pseudomonas aeruginosa = assay: Effect on intestinal bacteria: number of Pseudomonas aeruginosa in feces; assay type: in vivo, ICR mice; details: 500 mg/kg/day
Description: as §2, §3, §4
NAC agar 37° C., one day, […]

Lactobacillus bifidus = assay: Effect on intestinal bacteria: number of Lactobacillus bifidus in feces; assay type: in vivo, ICR mice; details: 500 mg/kg/day
Description: as §1, §2, §3, §4
BS agar 37° C., 5 days, […]

[3] = test system: Escherichia coli IFO 12734; assay: Antibacterial activity in vitro (MIC) against Escherichia coli; assay type: cell-based; details: IFO12734, Mueller-Hinton agar, 18 to 24 hours, 37° C., read-out: MIC (minimum growth inhibiting concentration) against Escherichia coli
Description: (§5) (c) Anti-bacterial activity (in vitro):
(§6) Minimum concentration of the present compound inhibiting the growth of the following bacteria was determined according to the standard procedures of Japan Society of Chemotherapy:
Escherichia coli IFO 12734 and
(§7) Determination of the antibacterial activity of the present compound produced in Examples 1 to 18, respectively was carried out according to the standard procedures of Japan Society of Chemotherapy for finding MIC (the minimum concentration of a specimen to inhibit the growth of a species of bacteria).
(§8) A series of diluted solutions of each of the present compound were mixed with 9 times by weight of Mueller-Hinton's culture medium as the culture medium for determining the sensitivity of a bacterial species, and flat agar culture plates were prepared by using the thus obtained mixture.
(§9) Each of the liquids respectively containing one of the bacterial species shown in Table 2 was smeared onto each of the thus prepared flat agar culture plates with a platinum loop, in length of about 2 cm, and the thus treated plates were incubated for 18 to 24 hours at 37° C. Thereafter, by observing the growth state of each bacterial species on the cultured plates, the minimum concentration of each compound completely inhibiting the growth of each bacterial species was found.

[4] = test system: Staphylococcus aureus IAM 1011; assay: Antibacterial activity in vitro (MIC) against Staphylococcus aureus; assay type: cell-based; details: IAM1011, Mueller-Hinton agar, 18 to 24 hours, 37° C., read-out: MIC (minimum growth inhibiting concentration) against Staphylococcus aureus
Description: as §5, §6
Staphylococcus aureus IAM 1011
as §7, §8, §9

[5] = after oral administration for 2 days, female ICR mice, before: 9.0
[6] = after oral administration for 2 days, female ICR mice, before: 6.4
[7] = after oral administration for 2 days, female ICR mice, before: 6.8
[8] = after oral administration for 2 days, female ICR mice, before: 8.2
[9] = after oral administration for 2 days, female ICR mice, before: <3.0
[10] = after oral administration for 2 days, female ICR mice, before: 8.3

Compound | Number of a sp. of Lactobacillus after the administration [1, 5] | Number of Escherichia coli after the administration (Escherichia coli; [6]) | Number of a sp. of Streptococcus after the administration [2, 7] | Number of a sp. of Bacterioides after the administration (a species of Bacteroides; [8]) | Number of Pseudomonas aeruginosa after the administration (Pseudomonas aeruginosa; [9]) | Number of Lactobacillus bifidus after the administration (Lactobacillus bifidus; [10]) | Number of a sp. of Lactobacillus after the administration ([1]; mouse, in vivo, po) | Number of a sp. of Streptococcus after the administration ([2]; mouse, in vivo, po) | Number of a sp. of Bacterioides after the administration (a species of Bacteroides; mouse, in vivo, po) | Number of Pseudomonas aeruginosa after the administration (Pseudomonas aeruginosa; mouse, in vivo, po) | Number of Lactobacillus bifidus after the administration (Lactobacillus bifidus; mouse, in vivo, po) | MIC [3] | MIC [4] | Number of Escherichia coli after the administration (Escherichia coli; mouse, in vivo, po)
CC1=C(C(=O)O)N2C(=O)[C@@H](NC(=O)[C@H](N)c3ccccc3)[C@H]2SC1 [CEFALEXIN, 7(D-alpha-amino-alpha-phenylacetamido)-3-methyl-3-cephem-4-carboxylic aci, reference compound] | 4.0 Log10 (number of bacteria/g feces) | 9.2 Log10 (number of bacteria/g feces) | 8.5 Log10 (number of bacteria/g feces) | 8.1 Log10 (number of bacteria/g feces) | < 3.0 Log10 (number of bacteria/g feces) | 8.0 Log10 (number of bacteria/g feces) | – | – | – | – | – | – | – | –
CC(=O)OCC1=C(C(=O)O)N2C(=O)[C@@H](NC(=O)CSc3ccncc3)[C@H]2SC1 [CEPHAPIRIN, 7(4-pyridylthioacetamido)cephalosporanic acid, reference compound] | 4.1 Log10 (number of bacteria/g feces) | 9.0 Log10 (number of bacteria/g feces) | 9.1 Log10 (number of bacteria/g feces) | 8.5 Log10 (number of bacteria/g feces) | < 3.0 Log10 (number of bacteria/g feces) | 9.1 Log10 (number of bacteria/g feces) | – | – | – | – | – | – | – | –
CC(=O)OCC1=C(C(=O)O)N2C(=O)C(NC(=O)CC#N)C2SC1 (stereo not drawn) [Compound X, sodium 7(2-cyanoacetamido)cephalosporanate, reference compound] | – | 9.0 Log10 (number of bacteria/g feces) | – | – | – | – | 4.6 Log10 (number of bacteria/g feces) | 9.1 Log10 (number of bacteria/g feces) | 8.2 Log10 (number of bacteria/g feces) | < 3.0 Log10 (number of bacteria/g feces) | 6.0 Log10 (number of bacteria/g feces) | – | – | –
COC(=O)c1ccc(NC(=O)C2=C(COC(C)=O)CSC3C(NC(=O)CSc4ccncc4)C(=O)N23)cc1 (stereo not drawn) [Example 1, N-(4-carbomethoxyphenyl)-[7-beta-(4-pyridylthioacetamido)cephalosporanic]amide] | – | 6.9 Log10 (number of bacteria/g feces) | – | – | – | – | 9.1 Log10 (number of bacteria/g feces) | 6.7 Log10 (number of bacteria/g feces) | 8.8 Log10 (number of bacteria/g feces) | < 3.0 Log10 (number of bacteria/g feces) | 8.4 Log10 (number of bacteria/g feces) | ≥ 100 µg/mL | ≥ 12.5 µg/mL | –
COC(=O)Cc1ccc(NC(=O)C2=C(COC(C)=O)CSC3C(NC(=O)CSc4ccncc4)C(=O)N23)cc1 (stereo not drawn) [Example 2, N-(4-carbomethoxymethylphenyl)-[7-(4-pyridylthioacetamido)caphalosporanic]amide] | – | 6.5 Log10 (number of bacteria/g feces) | – | – | – | – | 9.0 Log10 (number of bacteria/g feces) | 6.6 Log10 (number of bacteria/g feces) | 8.7 Log10 (number of bacteria/g feces) | < 3.0 Log10 (number of bacteria/g feces) | 8.6 Log10 (number of bacteria/g feces) | ≥ 100 µg/mL | ≥ 50 µg/mL | –
COC(=O)CNC(=O)c1ccc(NC(=O)C2=C(COC(C)=O)CSC3C(NC(=O)CSc4ccncc4)C(=O)N23)cc1 (stereo not drawn) [Example 3, N-(4-carbomethoxymethylcarbamoylphenyl)-[7-(4-pyridylthioacetamido)cephalosporanic]amide] | – | 6.5 Log10 (number of bacteria/g feces) | – | – | – | – | 9.1 Log10 (number of bacteria/g feces) | 6.7 Log10 (number of bacteria/g feces) | 8.1 Log10 (number of bacteria/g feces) | < 3.0 Log10 (number of bacteria/g feces) | 8.5 Log10 (number of bacteria/g feces) | ≥ 100 µg/mL | ≥ 50 µg/mL | –
COC(=O)Cc1ccc(NC(=O)C2=C(C)CSC3C(NC(=O)[C@H](N)c4ccccc4)C(=O)N23)cc1 (stereo partly drawn) [Example 4, N-(4-carbomethoxymethylphenyl)-[7-(D-alpha-aminophenylacetamido)desacetoxycephalosporanic]amide] | – | 6.6 Log10 (number of bacteria/g feces) | – | – | – | – | 8.9 Log10 (number of bacteria/g feces) | 6.8 Log10 (number of bacteria/g feces) | 8.3 Log10 (number of bacteria/g feces) | < 3.0 Log10 (number of bacteria/g feces) | 8.3 Log10 (number of bacteria/g feces) | ≥ 100 µg/mL | ≥ 100 µg/mL | –
CC(=O)OCC1=C(C(=O)Nc2ccc(C(N)=O)cn2)N2C(=O)C(NC(=O)CSc3ccncc3)C2SC1 (stereo not drawn) [Example 6, N-(nicotinamido)-[7-(4-pyridylthioacetamido)cephalosporanic acid]amide] | – | 6.7 Log10 (number of bacteria/g feces) | – | – | – | – | 9.0 Log10 (number of bacteria/g feces) | 6.7 Log10 (number of bacteria/g feces) | 8.7 Log10 (number of bacteria/g feces) | < 3.0 Log10 (number of bacteria/g feces) | 8.6 Log10 (number of bacteria/g feces) | ≥ 100 µg/mL | ≥ 100 µg/mL | –
COC(=O)c1ccc(NC(=O)C2=C(COC(C)=O)CSC3C(NC(=O)CC#N)C(=O)N23)cc1 (stereo not drawn) [Example 7, N-(4-carbomethoxyphenyl)-[7-(2-cyanoacetamido)cephalosporanic]amide] | – | 6.5 Log10 (number of bacteria/g feces) | – | – | – | – | 9.0 Log10 (number of bacteria/g feces) | 6.7 Log10 (number of bacteria/g feces) | 8.7 Log10 (number of bacteria/g feces) | < 3.0 Log10 (number of bacteria/g feces) | 8.3 Log10 (number of bacteria/g feces) | ≥ 100 µg/mL | ≥ 100 µg/mL | –
Cc1nnc(SCC2=C(C(=O)O)N3C(=O)[C@@H](NC(=O)Cn4cnnn4)[C@H]3SC2)s1 [SODIUM CEFAZORIN, reference compound] | – | – | – | – | – | – | 4.0 Log10 (number of bacteria/g feces) | 8.6 Log10 (number of bacteria/g feces) | 7.3 Log10 (number of bacteria/g feces) | < 3.0 Log10 (number of bacteria/g feces) | 9.1 Log10 (number of bacteria/g feces) | – | – | 8.9 Log10 (number of bacteria/g feces)
